Where two headings read alike, the source gives them in different places. Bridge positions count the residues as written; N and C are the ends. Square brackets hold non-standard residues; d marks the D form. Side chains are listed from the residue outwards. Peptide text beside a SMILES is read from it. * marks the point of attachment. TtdsdLys(DOTA)NH2 = NC(=O)[C@@H](CCCCNC(=O)CN1CCN(CC(=O)O)CCN(CC(=O)O)CCN(CC(=O)O)CC1)NC(=O)CCC(=O)NCCCOCCOCCOCCCN*; DOTA = O=C(O)CN1CCN(CC(=O)O)CCN(CC(=O)*)CCN(CC(=O)O)CC1; Phe(4-Cl) = N[C@@H](Cc1ccc(Cl)cc1)C(=O)O; Cit = NC(=O)NCCC[C@H](N)C(=O)O; Tle = CC(C)(C)[C@H](N)C(=O)O; Aib = CC(C)(N)C(=O)O; Ahx = NCCCCCC(=O)O; βAla = NCCC(=O)O
Key:
[1] = target: T1, Fc-fusion protein of human PSMA (hPSMA-Fc) (Homo sapiens, UniProt Q04609); experiment: Surface plasmon resonance assay (Biacore T200, single cycle kinetic); format: binding; conditions: read-out: pKD CAT (converted)
T1 construct: purchased Acro Biosystems PSA-H5264
T1 sequence (Q04609 44-750 limits assumed): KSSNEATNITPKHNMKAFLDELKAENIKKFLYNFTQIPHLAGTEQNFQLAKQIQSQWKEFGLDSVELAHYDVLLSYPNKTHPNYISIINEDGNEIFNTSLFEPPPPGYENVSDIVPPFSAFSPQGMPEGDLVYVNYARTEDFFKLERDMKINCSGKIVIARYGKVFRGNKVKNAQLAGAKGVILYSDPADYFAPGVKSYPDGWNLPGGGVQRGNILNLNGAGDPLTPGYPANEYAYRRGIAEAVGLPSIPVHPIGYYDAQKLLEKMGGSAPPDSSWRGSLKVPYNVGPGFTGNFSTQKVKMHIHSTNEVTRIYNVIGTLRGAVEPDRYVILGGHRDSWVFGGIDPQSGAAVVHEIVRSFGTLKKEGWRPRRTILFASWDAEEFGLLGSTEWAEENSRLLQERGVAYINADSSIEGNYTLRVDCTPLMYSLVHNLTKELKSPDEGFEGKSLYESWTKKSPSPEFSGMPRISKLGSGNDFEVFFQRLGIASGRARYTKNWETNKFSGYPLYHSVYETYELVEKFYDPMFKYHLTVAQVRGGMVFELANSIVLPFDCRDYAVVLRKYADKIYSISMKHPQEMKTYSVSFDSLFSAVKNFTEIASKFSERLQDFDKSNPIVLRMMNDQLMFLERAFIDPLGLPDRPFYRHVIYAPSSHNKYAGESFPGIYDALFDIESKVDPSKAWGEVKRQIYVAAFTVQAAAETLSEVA
Description: Surface plasmon resonance (SPR) studies were performed using a Biacore™ T200 SPR system. Briefly, polarized light is directed towards a gold-labeled sensor surface, and minimum intensity reflected light is detected. The angle of reflected light changes as molecules bind and dissociate.
Fc-fusion protein of human PSMA (hPSMA-Fc, Acro Biosystems, Cat #PSA-H5264) was captured on a Fc-capture chip (Biacore™ CM5 sensor chip coated with ˜300 RU of an Fc-binding peptide). hPSMA-Fc was diluted in Running Buffer (HBST, 0.1% DMSO) to a final concentration of 100 nM and then flushed over the Fc-capture chip to immobilized ˜1000 RUs.
Stock solutions of test compounds were prepared by dissolving each compound in DMSO. DMSO stock solution were diluted 1:1000 in Running Buffer without DMSO. Further sequential dilutions were made with Running Buffer containing 0.1% DMSO. SPR binding analyses were performed in Single Cycle Kinetic (SCK) mode at 25° C. Flow cell coated with the Fc-binding peptide only served as reference flowcell. After each SCK run, hPSMA-Fc was removed with 10 mM glycine buffer, pH 1.5.
In between every three SCK measurements, a blank run with Running Buffer instead of test compound was included to correct for baseline drifts (double blanking method).
Table 5 describes the protocol steps for Fc-fusion target capturing and assessment of the binding kinetics.
For each test compound, SPR raw data in the form of resonance units (RU) were plotted as sensorgrams using the Biacore™ T200 control software. The signal from the blank sensorgram was subtracted from that of the test compound sensorgram (blank corrected). The blank corrected sensorgram was corrected for baseline drift by subtracting the sensorgram of a SCK run without the test compound (running buffer only). The dissociation constant (KD) was calculated from Blank-normalized SPR data using the 1:1 Langmuir binding model from the Biacore™ Insight Evaluation software. The pKD value (negative decadic logarithm of dissociation constant) was calculated using Microsoft Excel.

[2] = target: T2, PSMA-expressing C4-2 cells (Homo sapiens, UniProt Q04609); experiment: FACS binding assay (competition with 50 nM PSM-0183); conditions: C4-2 cells, read-out: pIC50 [C4-2] CAT (converted)
T2 construct: PSMA-expressing C4-2 cells (ATCC, Cat. No. CRL-3314) were cultured in RPMI-1640; host or cells: C4-2 cells
T2 sequence (Q04609 whole entry): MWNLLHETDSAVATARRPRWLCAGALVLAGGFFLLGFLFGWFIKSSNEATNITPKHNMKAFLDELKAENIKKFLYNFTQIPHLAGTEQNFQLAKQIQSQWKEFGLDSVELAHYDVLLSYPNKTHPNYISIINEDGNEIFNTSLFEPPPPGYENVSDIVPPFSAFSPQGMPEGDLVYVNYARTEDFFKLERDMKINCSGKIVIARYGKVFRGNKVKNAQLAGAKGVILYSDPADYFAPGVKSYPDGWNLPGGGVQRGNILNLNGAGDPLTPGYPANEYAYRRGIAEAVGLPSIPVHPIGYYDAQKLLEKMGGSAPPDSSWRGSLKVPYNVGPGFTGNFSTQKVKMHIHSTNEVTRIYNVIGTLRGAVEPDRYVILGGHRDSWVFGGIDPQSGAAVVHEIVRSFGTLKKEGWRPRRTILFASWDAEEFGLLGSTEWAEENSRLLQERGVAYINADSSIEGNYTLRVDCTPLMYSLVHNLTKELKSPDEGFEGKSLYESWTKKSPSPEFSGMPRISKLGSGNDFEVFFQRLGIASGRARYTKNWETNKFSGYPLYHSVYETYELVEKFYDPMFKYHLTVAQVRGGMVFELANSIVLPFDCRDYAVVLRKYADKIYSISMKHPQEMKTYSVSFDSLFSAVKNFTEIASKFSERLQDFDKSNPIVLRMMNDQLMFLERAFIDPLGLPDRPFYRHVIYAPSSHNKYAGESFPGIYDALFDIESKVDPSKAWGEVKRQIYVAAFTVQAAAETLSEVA
Description: In order to determine binding of compounds according to the present invention to PSMA-expressing cells, a FACS binding assay was established.
PSMA-expressing C4-2 cells (ATCC, Cat. No. CRL-3314) were cultured in RPMI-1640 (Pan Biotech, Cat. No. P04-18050) including 10% fetal calf serum (Biochrom) and 100 U/ml penicillin and 100 μg/mL streptomycin (Sigma, Cat. No. P0781). Cells were detached with Accutase (Biolegend, Cat. No. BLD-423201) and washed in FACS buffer (PBS (Sigma, Cat. No. D8537) including 1% fetal calf serum). Cells were diluted in FACS buffer to a final concentration of 500,000 cells per mL. 200 μL of the cell suspension were transferred to a u-shaped non-binding 96-well plate (Greiner Bio-One, Cat. No. 650901) and cells were washed in ice-cold FACS buffer.
For IC50 determination, C4-2 cells were incubated with 50 nM PSM-0183 (Ac-Thr-Aib-Phe[Cys-Lys-Arg-Aib-Asn-Cys]-Tle-Thr-Asp-Ttds-Ttds-AF488N3K-NH2) in the presence of increasing concentrations of test compounds at 4° C. for 1 hour. After two wash steps with ice-cold FACS buffer, cells were analyzed in an Attune NxT flow cytometer. Median fluorescence intensities (MFI) of the FITC/AF488-channel were calculated by Attune NxT software. MFI values were plotted against peptide concentration and four parameter logistic (4PL) curve fitting and IC50/pIC50 calculations were performed using ActivityBase software (IDBS).

[3] = SPR, hPSMA-Fc, single cycle kinetic, 25° C., category
[4] = FACS binding, competition with 50 nM PSM-0183, category

## CC(=O)N[C@H](C(=O)NC(C)(C)C(=O)N[C@@H](Cc1ccccc1)C(=O)N[C@H]1CSSC[C@@H](C(=O)N[C@H](C(=O)N[C@H](C(N)=O)[C@@H](C)O)C(C)(C)C)NC(=O)[C@H](CC(N)=O)NC(=O)[C@H](CCCCNC(=O)CCCCCNC(=O)CN2CCN(CC(=O)O)CCN(CC(=O)O)CCN(CC(=O)O)CC2)NC(=O)[C@H](CCCNC(N)=O)NC(=O)[C@H](CCCCN)NC1=O)[C@@H](C)O [PSM-0582, Ac-Thr-Aib-Phe-[Cys-Lys-Arg-Lys(DOTA-Ahx)-Asn-Cys]-Tle-Thr-NH2] (Ac-T[Aib]FCK[Cit]K([Ahx-DOTA])NC[Tle]T-NH2; disulfide 4-9)
[1]; PSMA SPR assay, category
  Kd: < 0.0126 µM
[2]; FACS binding, category
  IC50: < 0.2 µM

## C[C@@H](O)[C@H](NC(=O)CN1CCN(CC(=O)O)CCN(CC(=O)O)CCN(CC(=O)O)CC1)C(=O)NC(C)(C)C(=O)N[C@@H](Cc1ccc(Cl)cc1)C(=O)N[C@H]1CSSC[C@@H](C(=O)N[C@H](C(=O)NCCC(N)=O)C(C)(C)C)NC(=O)[C@H](CC(N)=O)NC(=O)C(C)(C)NC(=O)[C@H](CCCNC(=N)N)NC(=O)[C@H](CCCCN)NC1=O [PSM-0216, DOTA-Thr-Aib-Pcf-[Cys-Lys-Arg-Aib-Asn-Cys]-Tle-Bal-NH2] ({DOTA}-T[Aib][Phe(4-Cl)]CKR[Aib]NC[Tle][βAla]-NH2; disulfide 4-9)
[1]; [3]
  Kd: < 0.0126 µM
[2]; [4]
  IC50: < 0.2 µM

## CC(=O)N[C@H](C(=O)NC(C)(C)C(=O)N[C@@H](Cc1ccccc1)C(=O)N[C@H]1CSSC[C@@H](C(=O)N[C@H](C(=O)N[C@H](C(N)=O)[C@@H](C)O)C(C)(C)C)NC(=O)[C@H](CCC(=O)O)NC(=O)C(C)(C)NC(=O)[C@H](CCCNC(=N)N)NC(=O)[C@H](CCCCN)NC1=O)[C@@H](C)O [PSM-0563, Ac-Thr-Aib-Phe-[Cys-Lys-Arg-Aib-Glu-Cys]-Tle-Thr-NH2] (Ac-T[Aib]FCKR[Aib]EC[Tle]T-NH2; disulfide 4-9)
[1]; PSMA SPR assay, category
  Kd: 0.0126 to 0.126 µM
[2]; FACS binding, category
  IC50: < 0.2 µM

## CC(=O)N[C@H](C(=O)N[C@@H](C)C(=O)N[C@@H](Cc1ccccc1)C(=O)N[C@H]1CSSC[C@@H](C(=O)N[C@H](C(=O)N[C@H](C(=O)N[C@@H](CC(=O)O)C(=O)NCCCOCCOCCOCCCNC(=O)CCC(=O)N[C@H](CCCCNC(=O)CN2CCN(CC(=O)O)CCN(CC(=O)O)CCN(CC(=O)O)CC2)C(N)=O)[C@@H](C)O)C(C)(C)C)NC(=O)[C@H](CC(N)=O)NC(=O)[C@H](C)NC(=O)[C@H](CCCNC(=N)N)NC(=O)[C@H](CCCCN)NC1=O)[C@@H](C)O [PSM-0266, Ac-Thr-Ala-Phe-[Cys-Lys-Arg-Ala-Asn-Cys]-Tle-Thr-Asp-Ttds-lys(DOTA)-NH2] (Ac-TAFCKRANC[Tle]TD-{TtdsdLys(DOTA)NH2}; disulfide 4-9)
[1]; [3]
  Kd: 0.0126 to 0.126 µM
[2]; [4]
  IC50: < 0.2 µM

## CC(=O)N[C@H](C(=O)NC(C)(C)C(=O)N[C@@H](Cc1ccc(Cl)cc1)C(=O)N[C@H]1CSSC[C@@H](C(=O)N[C@H](C(=O)N[C@H](C(=O)O)[C@@H](C)O)C(C)(C)C)NC(=O)[C@H](CC(N)=O)NC(=O)C(C)(C)NC(=O)[C@H](CCCNC(=N)N)NC(=O)[C@H](CCCCN)NC1=O)[C@@H](C)O [PSM-0493, Ac-Thr-Aib-Pcf-[Cys-Lys-Arg-Aib-Asn-Cys]-Tle-Thr-OH] (Ac-T[Aib][Phe(4-Cl)]CKR[Aib]NC[Tle]T-OH; disulfide 4-9)
[1]; pKD category for PSMA SPR activity assay, hPSMA-Fc, 25° C.
  Kd: < 0.0126 µM
[2]; pIC50 category of FACS binding
  IC50: < 0.2 µM
